We go through 8 compounds from patent US5135931A, “Pyridinylpiperazine derivatives” (Akzo N.V., priority 1990, dated 1992).

Structures can show the parent of a compound that is named as a salt.

Experiment [1] deals with 5-HT1B (serotonin 1B) receptor (Rattus norvegicus, UniProt P28564). The experiment in a line: serotonin binding activity, 5-HT1B. Particulars: average test results; read-out: pKi 5-HT1B (converted). As for the experimental part: (§1) The various compounds of Examples I-VIII were analyzed for serotonin binding activity.
5-HT1B (serotonin 1B) receptor, sequence (P28564 whole entry): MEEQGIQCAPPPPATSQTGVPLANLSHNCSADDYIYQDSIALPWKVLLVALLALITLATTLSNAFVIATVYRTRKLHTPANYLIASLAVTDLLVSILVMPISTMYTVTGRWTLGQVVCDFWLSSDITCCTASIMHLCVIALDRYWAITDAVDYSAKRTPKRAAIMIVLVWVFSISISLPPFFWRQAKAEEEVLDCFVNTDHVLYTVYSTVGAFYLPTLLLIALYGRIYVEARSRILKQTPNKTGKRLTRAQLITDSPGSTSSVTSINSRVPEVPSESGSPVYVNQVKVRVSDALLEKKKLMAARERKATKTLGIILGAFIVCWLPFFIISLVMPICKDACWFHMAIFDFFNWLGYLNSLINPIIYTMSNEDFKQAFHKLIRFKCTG
For experiment [2], the target named is T1, 5-HT1A (serotonin 1A) receptors (Homo sapiens, UniProt P08908).
T1 sequence (P08908 1-422): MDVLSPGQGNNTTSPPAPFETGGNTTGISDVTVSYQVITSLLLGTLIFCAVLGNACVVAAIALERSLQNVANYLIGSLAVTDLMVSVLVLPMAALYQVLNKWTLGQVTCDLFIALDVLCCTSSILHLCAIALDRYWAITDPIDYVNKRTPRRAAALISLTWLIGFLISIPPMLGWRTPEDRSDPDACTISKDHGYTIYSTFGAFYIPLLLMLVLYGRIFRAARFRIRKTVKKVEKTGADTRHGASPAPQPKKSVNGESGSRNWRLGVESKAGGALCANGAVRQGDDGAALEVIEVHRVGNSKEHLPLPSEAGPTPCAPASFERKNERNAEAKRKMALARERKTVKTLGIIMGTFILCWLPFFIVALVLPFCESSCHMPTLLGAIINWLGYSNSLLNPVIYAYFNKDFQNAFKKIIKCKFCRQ
The experiment in a line: serotonin binding activity, 5-HT1A. The conditions noted are these: average test results; read-out: pKi 5-HT1A (converted). The protocol: as §1

For the compound `O=C(NCCN1CCN(c2cccc(C(F)(F)F)n2)CC1)c1ccc(F)cc1` [Example I, 4-fluoro-N-[2-[4-[6-(trifluoromethyl)-2-pyridinyl]-1-piperazinyl]ethyl]benzamide (E)-2-butenedioate (1:1) salt], the Ki is above 10 µM in experiment [1] and 0.00158 µM in experiment [2].
On the same counts, the results for `O=C(NCCCCN1CCN(c2cccc(C(F)(F)F)n2)CC1)c1ccc(F)cc1` [Example IV, 4-fluoro-N-[4-[4-[6-(trifluoromethyl) -2-pyridinyl]-1-piperazinyl]butyl]benzamide (E)-2-butenedioate (2:1) salt] are 0.501 µM and 0.00794 µM.
For `O=C(NCCN1CCN(c2cccc(C(F)(F)F)n2)CC1)c1ccccc1` [II, N-[2-[4-[6-(trifluoromethyl)-2-pyridinyl]-1-piperazinyl]ethyl]benzamide (E)-2-butenedioate (1:1) salt], the Ki in experiment [1] is 10 µM; in experiment [2], 0.001 µM.
On the same counts, the results for `O=C(NCCN1CCN(c2cc(C(F)(F)F)ccn2)CC1)c1ccc(F)cc1` [III, 4-fluoro-N-[2-[4-[4-(trifluoromethyl) -2-pyridinyl]-1-piperazinyl]ethyl]benzamide (E)-2-butenedioate (1:1) salt] are 10 µM and 0.02 µM.
On the same counts, the results for `O=C(NCCCCN1CCN(c2cccc(C(F)(F)F)n2)CC1)c1ccccc1` [V, N-[4-[4-[6-(trifluoromethyl)-2-pyridinyl]-1-piperazinyl]butyl]benzamide (E)-2-butenedioate (2:1) salt] are 1 µM and 0.00631 µM.
On the same counts, the results for `CN(CCN1CCN(c2cccc(C(F)(F)F)n2)CC1)C(=O)c1ccc(F)cc1` [VII, 4-fluoro-N-[2-[4-(6-(trifluoromethyl)-2-pyridinyl)-1-piperazinyl]ethyl]-N-methylbenzamide] are above 10 µM and 0.0316 µM.
For the compound `CN(CCCN1CCN(c2cccc(C(F)(F)F)n2)CC1)C(=O)c1ccc(F)cc1` [VIII, 4-fluoro-N-[3-[4-(6-(trifluoromethyl)-2-pyridinyl)-1-piperazinyl]propyl]-N-methylbenzamide], the Ki is above 10 µM in experiment [1] and 0.0631 µM in experiment [2].
`O=C(NCCN1CCN(c2cccc(C(F)(F)F)n2)CC1)c1cccnc1` [VI]: the Ki was 5.01 µM in experiment [1] and 0.0501 µM in experiment [2].
